Measurements reported in patent US20250281406A1, “COMPOUNDS, COMPOSITIONS AND METHODS FOR DELIVERY OF BIOLOGICALLY ACTIVE AGENTS” (ROYAL MELBOURNE INSTITUTE OF TECHNOLOGY, priority 2022, published 2025).

Columns and labels:
[1] = Particle size and polydispersity index of lipid nanoparticles by dynamic light scattering; assay type: physicochemical; settings: mean ± SD n=3
Method: The average hydrodynamic diameter and polydispersity index (PDI) of lipid nanoparticles were measured by dynamic light scattering (DLS) using a Malvern Zetasizer Nano ZS (Malvern Instruments, UK). All measurements were performed at 25° C. (n=3) by loading the lipid formulations (10 μL) into clear 96-well half-area polystyrene plates and diluting with 190 μL milli-Q water (Zhai et al. 2015).

[2] = Mesophase (phase behaviour) of lipid nanoparticles by synchrotron SAXS; assay type: physicochemical
Method: Nanoparticle preparations (50 μL) were loaded into a transparent 96-well half-area polystyrene plate (Greiner Bio-One, Interpath Inc., VIC, Australia), and 50 μL of a suitable buffer solution (Citrate buffer) of specified pH was added to the plate. Phase behaviour of the nanoparticles was characterized at the SAXS/WAXS beamline of the Australian Synchrotron. The instrument used an X-ray wavelength of λ=1.128 Å (11.0 keV) with atypical flux of approximately […]. The sample to detector distance was chosen as 1.6 m which provided a q-range of 0.01-0.5 Å^−1 (scattering vector q=4π sin (θ/2)/λ, whereby θ is the scattering angle and λ is the wavelength). Sample scattering patterns were obtained at 25° C. and 37° C. following the procedure reported in the literature. The plate was placed in a holder perpendicular to the X-ray beam. The sample holder was moved by motors that were controlled by in-house ScatterBrain software for automatic SAXS screening. The sample temperature was controlled by a circulating water bath and kept at 25° C. or 37° C. Two-dimensional X-ray diffraction images were recorded on a Decris-Pilatus 1-M detector using ScatterBrain. The scattering images were integrated into one dimensional plots of intensity versus q for phase identification. The mesophase of the nanoparticles were assigned by matching the relative positions of the scattering peaks with known patterns for bicontinuous cubic, hexagonal, lamellar, and micellar cubic phase. The lattice parameter of the nanoparticles were calculated using the IDL-based software AXcess following the described method (Tran et al. 2018; Tran et al. 2016).
As detailed in Example 2 above, lipid nanoparticles described herein were prepared by doping the synthesised amino lipids into MO at 8 different compositions (RMO=0.05, 0.1, 0.15, 0.2, 0.25, 0.3, 0.4, 0.5) and dispersed with Pluronic F-127. Mesophase structure of the drug-free formulations was determined by SAXS over ten different pH values (a pH range of 2.5 to 10). FIG. 3 represents the SAXS partial phase diagrams of these nanoparticles at 25° C. The shape of an amphiphile can be characterised by the critical packing parameter (CPP). CPP=V/al, in which V is the effective volume of the amphiphile's hydrophobic tail, a is the effective cross-sectional area of the headgroup, and l is the effective length of the hydrocarbon chain. Lamellar phases (Lα) are typically observed with a zero interfacial curvature. For CPP values greater than 1, inverse phases, such as Q2 and H2 phases, are formed with increasing negative interfacial curvatures. The Q2 phase consists of lipid bilayers arranged in periodic 3D structures by twisting the bilayers into the shape of infinite periodic minimal surfaces. The H2 is a closed, extended micellar columnar structure, where there is no direct contact between the water inside and outside the H2 phase.

[3] = Drug loading and encapsulation efficiency of SN-38 nanoparticles by HPLC; assay type: physicochemical
Method: The amount of drug loading (DL) and encapsulation efficiency (EE) were determined for each of the four formulations of Example 5 using an HPLC method.
The nanoparticles containing the drug was centrifuged at 1000×g for 25 min at 25° C. to remove any un-encapsulated drug agglomerates. The supernatant was collected and vortexed for 10 min at 2500 rpm for uniform distribution.
For the SN-38 drug content assay, a UV variable detector at a wavelength of 265 nm and an Agilent Zorbax SB-C18 column (4.6 mm×250 mm, five μm) were utilised. The mobile phase consisted of a 50:50 (v/v) mixture of 25 mM NaH2PO4 (pH=3.1) buffer and acetonitrile. The mobile phase pH was maintained at 3.8 to ensure the analyte, SN-38, was in the closed lactone ring form during the assay. The sample for HPLC was prepared by diluting the nanoparticles 100 times with HPLC solvents (10 μL of the formulation with 990 μL 50/50 mixture of buffer and acetonitrile). During the assay, an aliquot of 20 μL of the sample was injected in duplicate into the HPLC system at a flow rate of 1 ml/min. The SN-38 content in the formulation was quantitatively determined using a standard curve prepared as outlined in previously published journal articles (Zhang et al. 2004; Escoriaza et al. 2000).
The following equation was used calculate the encapsulation efficiency (EE %) […]

[4] = In vitro release of SN-38 by dynamic dialysis; assay type: physicochemical; settings: pure-drug suspension, no lipid nanocarriers, within 60-90 min
Method: In vitro release of SN-38 from the nanoparticles was evaluated using a dynamic dialysis method (Zambito, Y. International Journal of Pharmaceutics 2012, 434 (1), 28-34). The drug release rate was determined by placing the dispersion in a dialysis tube (Pur-A-Lyzer™ Maxi Dialysis tube molecular weight cut off 3500) and exhaustively dialysing.
After removing the free drug, the highest SN-38 loaded nanoparticles (1 mL formulation) were placed inside the dialysis tube. The dialysis tube was then immersed in a 1000 mL buffer maintained at 37±1.0° C. and stirred at 400 rpm. The analysis of the separation of free drug from drug-loaded formulations was carried out over a period of 420 min. Release experiments were performed in triplicate on three independently prepared SN-38 loaded formulations. For physiological pH, experiments were carried out by dialysing the formulations against 1000 mL of phosphate buffer (pH 7.0). Lower pH experiments were carried out by dialysing the formulations against 1000 mL of phosphate buffer adjusted to the required pH. The SN-38 that remained in the dialysis tube was quantitatively measured by the HPLC method. At predetermined time intervals (60 min, 120 min, 240 min and 420 min), 10 μL of the sample was withdrawn from the dialysis tube and diluted with 990 μL of the HPLC solvent. […]

[5] = cited from earlier work
[6] = MO nanoparticles with amino lipid at RMO 0.05, Pluronic F-127, 25° C.
[7] = MO nanoparticles with amino lipid at RMO 0.1, Pluronic F-127, 25° C.
[8] = MO nanoparticles with amino lipid at RMO 0.15, Pluronic F-127, 25° C.
[9] = MO nanoparticles with amino lipid at RMO 0.2, Pluronic F-127, 25° C.
[10] = MO nanoparticles with amino lipid at RMO 0.25, Pluronic F-127, 25° C.
[11] = MO nanoparticles with amino lipid at RMO 0.3, Pluronic F-127, 25° C.
[12] = MO nanoparticles with amino lipid at RMO 0.4, Pluronic F-127, 25° C.
[13] = MO nanoparticles with amino lipid at RMO 0.5, Pluronic F-127, 25° C.

Row | PDI of the formulations [1, 6] | Particle Size in nm [1, 6] [nm] | PDI of the formulations [1, 7] | Particle Size in nm [1, 7] [nm] | PDI of the formulations [1, 8] | Particle Size in nm [1, 8] [nm] | PDI of the formulations [1, 9] | Particle Size in nm [1, 9] [nm] | PDI of the formulations [1, 10] | Particle Size in nm [1, 10] [nm] | PDI of the formulations [1, 11] | Particle Size in nm [1, 11] [nm] | PDI of the formulations [1, 12] | Particle Size in nm [1, 12] [nm] | PDI of the formulations [1, 13] | Particle Size in nm [1, 13] [nm] | SMILES | other results
1 | 0.16 ± 0.03 | 217 ± 6 | 0.21 ± 0.02 | 224 ± 3 | 0.2 ± 0.05 | 259 ± 8 | 0.19 ± 0.03 | 271 ± 4 | 0.39 ± 0.03 | 250 ± 3 | 0.22 ± 0.02 | 246 ± 4 | 0.24 ± 0.03 | 244 ± 6 | 0.25 ± 0.04 | 265 ± 4 | CCCCCCCC/C=C\CCCCCCCC(=O)NCc1ccncc1 [Lipid-10, N-(pyridine-4-ylmethyl)oleamide] | Shift of H2 to Q2 transition at 37° C. compared to 25° C. (higher) ([2]; RMO 0.4, pH 4.0 to 7.5): 0.5 pH unit; pH at which Q2 is reached in the transition from H2 at pH 7.5 ([2]; RMO=0.4-0.5, 25° C.): 5.5 pH; pH resulting in liposome formation ([2]; RMO=0.4-0.5, further decrease in pH): 4.0 pH; RMO at which the transition from Q2 to H2 occurred ([2]; pH 7, MO nanoparticles): 0.4
2 | 0.23 ± 0.04 | 284 ± 2 | 0.18 ± 0.03 | 255 ± 4 | 0.20 ± 0.03 | 300 ± 7 | 0.23 ± 0.02 | 267 ± 4 | 0.28 ± 0.02 | 313 ± 4 | 0.20 ± 0.02 | 290 ± 4 | 0.10 ± 0.02 | 272 ± 5 | 0.21 ± 0.03 | 300 ± 4 | CCCCCCCC/C=C\CCCCCCCC(=O)NCc1ccccn1 [Lipid-11] | Phase observed ([2]; RMO=0.4, neutral pH, MO nanoparticles): L2 phase; pH of transition from L2 to Q2 ([2]; RMO=0.4-0.5): 3.0 pH
3 | 0.25 ± 0.03 | 180 ± 3 | 0.20 ± 0.04 | 176 ± 4 | 0.23 ± 0.04 | 168 ± 4 | 0.22 ± 0.05 | 185 ± 6 | 0.19 ± 0.03 | 180 ± 2 | 0.23 ± 0.03 | 194 ± 5 | 0.15 ± 0.05 | 200 ± 5 | 0.18 ± 0.05 | 209 ± 5 | CCCCCCCC/C=C\CCCCCCCC(=O)NCCN1CCCCC1 [Lipid-13, N-(2-(piperidin-1-yl)ethyl)oleamide] | pH difference within which the change from H2 to Q2 is observed ([2]; RMO=0.2-0.3): ≤ 0.5 pH unit; pH of H2→Q2 transition ([2]; RMO=0.2-0.3): 7.0 pH

The next lines start with the molecule.

Row | SMILES | PDI of the formulations [1, 6] | Particle Size in nm [1, 6] [nm] | PDI of the formulations [1, 7] | Particle Size in nm [1, 7] [nm] | PDI of the formulations [1, 8] | Particle Size in nm [1, 8] [nm] | PDI of the formulations [1, 9] | Particle Size in nm [1, 9] [nm] | PDI of the formulations [1, 10] | Particle Size in nm [1, 10] [nm] | PDI of the formulations [1, 11] | Particle Size in nm [1, 11] [nm] | PDI of the formulations [1, 12] | Particle Size in nm [1, 12] [nm] | PDI of the formulations [1, 13] | Particle Size in nm [1, 13] [nm] | other results
4 | CCCCCCCC/C=C\CCCCCCCC(=O)NCCN1CCOCC1 [Lipid-12] | 0.23 ± 0.03 | 214 ± 4 | 0.20 ± 0.05 | 218 ± 3 | 0.20 ± 0.05 | 239 ± 3 | 0.30 ± 0.03 | 250 ± 2 | 0.25 ± 0.03 | 191 ± 8 | 0.25 ± 0.05 | 206 ± 11 | 0.40 ± 0.04 | 205 ± 6 | 0.38 ± 0.03 | 137 ± 6 | 
5 | CCc1c2c(nc3ccc(O)cc13)-c1cc3c(c(=O)n1C2)COC(=O)[C@]3(O)CC [SN-38] |  |  |  |  |  |  |  |  |  |  |  |  |  |  |  |  | Loading relative to solubility of SN-38 in water ([3]; 844 μg/ml loading): ~100 times; Loading of SN-38 ([3]; highest loading achieved in MO/Lipid-10 nanoparticles): 844 µg/mL; SN-38 released through dialysis membrane [4]: More than 90%; Solubility in water [5]: 7 to 11 µg/mL
